From the supplement of paper PMC11451515

Test system: SEM cells
Assay: cell viability relative to DMSO control; higher = less cytotoxic
Conditions: 48 h
Outline: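 Library compounds in DMSO were pin-dosed into 1536-well plates (5 μl) holding NOMO1 or SEM (500 cells/well) or P12-Ichikawa (1000 cells/well) leukemia cells, across an 11-point threefold series of 47 μM to 0.79 nM. Each cell line had been adapted for at least four passages in each medium. CellTiter-Glo One luminescence was read after 48 h at 37°C. Viability is the per-plate percentage relative to DMSO wells, with cell-free wells as background.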

[1] = HPLM + 10% dialyzed FBS, 0.000781 µM
[2] = HPLM + 10% dialyzed FBS, 0.00234 µM
[3] = HPLM + 10% dialyzed FBS, 0.00702 µM
[4] = HPLM + 10% dialyzed FBS, 0.0211 µM
[5] = HPLM + 10% dialyzed FBS, 0.0632 µM
[6] = HPLM + 10% dialyzed FBS, 0.19 µM
[7] = HPLM + 10% dialyzed FBS, 0.569 µM
[8] = HPLM + 10% dialyzed FBS, 1.71 µM
[9] = HPLM + 10% dialyzed FBS, 5.12 µM
[10] = HPLM + 10% dialyzed FBS, 15.4 µM
[11] = HPLM + 10% dialyzed FBS, 46.1 µM
[12] = RPMI 5 mM glucose + 10% FBS, 0.000781 µM
[13] = RPMI 5 mM glucose + 10% FBS, 0.00234 µM
[14] = RPMI 5 mM glucose + 10% FBS, 0.00702 µM
[15] = RPMI 5 mM glucose + 10% FBS, 0.0211 µM
[16] = RPMI 5 mM glucose + 10% FBS, 0.0632 µM
[17] = RPMI 5 mM glucose + 10% FBS, 0.19 µM
[18] = RPMI 5 mM glucose + 10% FBS, 0.569 µM
[19] = RPMI 5 mM glucose + 10% FBS, 1.71 µM
[20] = RPMI 5 mM glucose + 10% FBS, 5.12 µM
[21] = RPMI 5 mM glucose + 10% FBS, 15.4 µM
[22] = RPMI 5 mM glucose + 10% FBS, 46.1 µM
[23] = RPMI 5 mM glucose + 10% dialyzed FBS, 0.000781 µM
[24] = RPMI 5 mM glucose + 10% dialyzed FBS, 0.00234 µM
[25] = RPMI 5 mM glucose + 10% dialyzed FBS, 0.00702 µM
[26] = RPMI 5 mM glucose + 10% dialyzed FBS, 0.0211 µM
[27] = RPMI 5 mM glucose + 10% dialyzed FBS, 0.0632 µM
[28] = RPMI 5 mM glucose + 10% dialyzed FBS, 0.19 µM
[29] = RPMI 5 mM glucose + 10% dialyzed FBS, 0.569 µM
[30] = RPMI 5 mM glucose + 10% dialyzed FBS, 1.71 µM
[31] = RPMI 5 mM glucose + 10% dialyzed FBS, 5.12 µM
[32] = RPMI 5 mM glucose + 10% dialyzed FBS, 15.4 µM
[33] = RPMI 5 mM glucose + 10% dialyzed FBS, 46.1 µM

Row | SMILES | cell viability [1] | cell viability [2] | cell viability [3] | cell viability [4] | cell viability [5] | cell viability [6] | cell viability [7] | cell viability [8] | cell viability [9] | cell viability [10] | cell viability [11] | cell viability [12] | cell viability [13] | cell viability [14] | cell viability [15] | cell viability [16] | cell viability [17] | cell viability [18] | cell viability [19] | cell viability [20] | cell viability [21] | cell viability [22] | cell viability [23] | cell viability [24] | cell viability [25] | cell viability [26] | cell viability [27] | cell viability [28] | cell viability [29] | cell viability [30] | cell viability [31] | cell viability [32] | cell viability [33]
1 | Nc1nc(Nc2ccc([S+](N)(=O)[O-])cc2)nn1C(=O)c1c(F)cccc1F | 104% | 111% | 97.8% | 133% | 104% | 113% | 123% | 116% | 64.1% | 32.1% | 5.68% | 100% | 107% | 113% | 110% | 114% | 101% | 100% | 109% | 76.5% | 34.7% | 6.53% | 88.9% | 108% | 114% | 115% | 110% | 122% | 111% | 123% | 64.8% | 34.5% | 4.33%
2 | OC1=CC2=C(C(=O)\C=C(/O2)C3=CC=CC=C3)C(=C1O)O | 105% | 116% | 106% | 103% | 111% | 109% | 104% | 93.3% | 77.5% | 25.6% | 23.8% |  |  |  |  |  |  |  |  |  |  |  | 108% | 94.4% | 102% | 94.5% | 104% | 99.5% | 106% | 102% | 69.5% | 16.7% | 14.6%
3 | CCCNCC(O)COc1ccccc1C(=O)CCc1ccccc1 (stereo not drawn) | 86.5% | 86.5% | 117% | 93.3% | 98.7% | 54.2% | 105% | 112% | 117% | 108% | 99.6% | 98.8% | 95.1% | 98.1% | 104% | 107% | 60.4% | 125% | 109% | 124% | 116% | 97.2% | 101% | 85.1% | 109% | 90.5% | 102% | 43.6% | 118% | 104% | 116% | 115% | 110%
4 | C[N]1N=CC2=C1C=C(C(=C2)OC3=CC=C(NC(=O)\C4=C\C=C(\C)N(C4=O)C5=CC=C(F)C=C5)C=C3F)C6=C[NH]N=C6 | 98.7% | 93.2% | 94.4% | 94.5% | 62.3% | 54% | 48.3% | 43% | 11.1% | 6.77% | 7.19% | 91.5% | 100% | 96.6% | 84.3% | 54.7% | 56.1% | 59.1% | 38.9% | 9.63% | 8.07% | 8.6% | 98.5% | 105% | 97.8% | 89.4% | 54.5% | 52.1% | 50.8% | 43.7% | 11.4% | 7.29% | 7.53%
5 | CCCOc1ccc2[nH]c(NC(=O)OC)nc2c1 | 106% | 99.4% | 97.6% | 82.9% | 42.1% | 25.4% | 23% | 25.8% | 25.7% | 24.6% | 23% | 95.3% | 78.3% | 70% | 60% | 23.6% | 14.1% | 13.2% | 9.52% | 11.6% | 12.1% | 15.1% | 120% | 123% | 94.4% | 80.2% | 45.2% | 20.1% | 22.5% | 15.3% | 17.5% | 20.8% | 18.7%
6 | N#CC1(c2ccc(NC(=O)c3cccnc3NCc3ccncc3)cc2)CCCC1 | 120% | 123% | 123% | 118% | 116% | 102% | 124% | 113% | 91% | 80.7% | 81.4% |  |  |  |  |  |  |  |  |  |  |  |  |  |  |  |  |  |  |  |  |  | 
7 | C[C@H]1[C@H](O)O[C@@H]2O[C@@]3(C)CC[C@H]4[C@H](C)CC[C@@H]1[C@@]24OO3 | 86.7% | 82.3% | 90.2% | 92.7% | 95.8% | 109% | 105% | 98.3% | 41.5% | 22.4% | 17.9% | 82.3% | 93% | 90.8% | 89.3% | 96.9% | 94.8% | 93.1% | 74.5% | 47.1% | 10.1% | 5.91% | 74.7% | 82.1% | 89% | 82.8% | 76% | 111% | 89.8% | 87.1% | 17.6% | 8.87% | 8.68%
8 | CCCC(CCC)C(=O)[O-] | 87% | 88.8% | 110% | 97.5% | 92.3% | 91% | 103% | 112% | 93.3% | 100% | 88.6% | 104% | 103% | 121% | 123% | 115% | 102% | 125% | 125% | 115% | 116% | 135% | 74.3% | 105% | 95.3% | 124% | 89.7% | 96.8% | 107% | 118% | 107% | 98.1% | 108%
9 | Clc1ccccc1C(c1ccccc1)(c1ccccc1)n1cccn1 | 104% | 121% | 119% | 123% | 113% | 130% | 118% | 124% | 126% | 107% | 121% |  |  |  |  |  |  |  |  |  |  |  | 124% | 129% | 124% | 130% | 138% | 121% | 124% | 122% | 137% | 122% | 144%
